Converted amounts (≈) assume the structure as drawn. Numbered stars: 1 amine (or outer) side, 2 acyl side, 3 side chain; on linkers, the order of the positions; unused ones are H or OH. Bridge positions count the residues as written; N and C are the ends. Square brackets hold non-standard residues; d marks the D form. Peptide text beside a SMILES is read from it. * marks the point of attachment. Orn(4R-OH,5R-OH) = O=C([C@H](C[C@@H](O)[C@@H](O)N[*:3])N[*:1])[*:2]; hTyr(3S-OH,4S-OH) = N[C@H](C(=O)O)[C@H](O)[C@@H](O)c1ccc(O)cc1; Pro(3S-OH,4S-Me) = C[C@H]1CN[C@H](C(=O)O)[C@H]1O; X1 = CCCCCOc1ccc(-c2cc(-c3ccc(C(=O)*)cc3)no2)cc1; Gln(3R-OH) = NC(=O)C[C@@H](O)[C@H](N)C(=O)O; Pro(3S-OH) = O=C(O)[C@H]1NCC[C@@H]1O; Hyp = O=C(O)[C@@H]1C[C@@H](O)CN1
Key:
Candida albicans [1] = test: Antifungal activity against Candida albicans MY1055 infected in DBA/2 mouse assessed as reduction of log CFU in kidney administered 30 mins as ip tid post infection measured after 24 hrs; format: functional
Candida albicans [2] = test: Antifungal activity against caspofungin-resistant Candida albicans CLY-16996 harboring 1,3-beta-D-glucan synthase component FKS1/FKS1 S645F mutant assessed as growth inhibition after 24 hrs by NCCLS broth microdilution method; format: functional; settings: CLY-16996, 24 h
[3] = Inhibition of caspofungin-resistant Candida albicans CLY-16997 1,3-beta-D-glucan synthase component FKS1/FKS1 S645P mutant using UDP[6,3H]-glucose as substrate after 60 mins by liquid scintillation counting analysis
[4] = Inhibition of caspofungin-resistant Candida albicans CLY-16996 1,3-beta-D-glucan synthase component FKS1/FKS1 S645F mutant using UDP[6,3H]-glucose as substrate after 60 mins by liquid scintillation counting analysis
Beta-1,3-glucan synthase [5] = molecular target: T1, Beta-1,3-glucan synthase (Candida albicans, UniProt O13383); test: Inhibition of wild type Candida albicans MY1055 1,3-beta-D-glucan synthase using UDP[6,3H]-glucose as substrate after 60 mins by liquid scintillation counting analysis
T1 sequence (O13383 whole entry): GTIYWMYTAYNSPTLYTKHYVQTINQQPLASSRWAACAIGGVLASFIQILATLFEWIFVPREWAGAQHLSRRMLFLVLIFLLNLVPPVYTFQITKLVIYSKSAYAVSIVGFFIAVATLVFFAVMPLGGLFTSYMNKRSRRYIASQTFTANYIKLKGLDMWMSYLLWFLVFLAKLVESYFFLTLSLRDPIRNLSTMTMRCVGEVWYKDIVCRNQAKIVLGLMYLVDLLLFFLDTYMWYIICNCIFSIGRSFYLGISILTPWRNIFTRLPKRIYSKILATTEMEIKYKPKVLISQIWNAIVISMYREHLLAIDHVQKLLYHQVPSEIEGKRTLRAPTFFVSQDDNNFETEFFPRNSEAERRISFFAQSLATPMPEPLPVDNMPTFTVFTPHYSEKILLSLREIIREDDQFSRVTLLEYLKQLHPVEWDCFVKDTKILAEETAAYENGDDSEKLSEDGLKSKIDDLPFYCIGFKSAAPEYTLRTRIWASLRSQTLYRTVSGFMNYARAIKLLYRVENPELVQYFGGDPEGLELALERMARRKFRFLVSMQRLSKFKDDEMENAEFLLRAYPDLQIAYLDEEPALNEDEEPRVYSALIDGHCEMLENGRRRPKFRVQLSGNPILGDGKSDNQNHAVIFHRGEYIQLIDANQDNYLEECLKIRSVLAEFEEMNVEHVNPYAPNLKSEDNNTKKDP

Escherichia coli = test: Antibacterial activity against Escherichia coli ATCC 25922 assessed as growth inhibition after 24 hrs by NCCLS broth microdilution method; format: functional; settings: ATCC 25922, 24 h, read-out: MIC100
Staphylococcus aureus = test: Antibacterial activity against methicillin-sensitive Staphylococcus aureus MB2865 assessed as growth inhibition after 24 hrs by NCCLS broth microdilution method; format: functional; settings: MB2865, 24 h, read-out: MIC100
Candida albicans [6] = test: Antifungal activity against Candida albicans NR3 assessed as growth inhibition after 24 hrs by NCCLS broth microdilution method; format: functional; settings: NR3, 24 h; for MIC: read-out: MIC100
Candida albicans [7] = test: Antifungal activity against Candida albicans CAI4-R1 assessed as growth inhibition after 24 hrs by NCCLS broth microdilution method; format: functional; settings: CAI4-R1, 24 h; for MIC: read-out: MIC100
Candida albicans [8] = test: Antifungal activity against wild type Candida albicans CAI4 assessed as growth inhibition after 24 hrs by NCCLS broth microdilution method; format: functional; settings: CAI4, 24 h; for MIC: read-out: MIC100
[9] = tested on: Meyerozyma guilliermondii; test: Antifungal activity against wild type Candida guilliermondii CLY308 assessed as growth inhibition after 24 hrs by NCCLS broth microdilution method; format: functional; settings: CLY308, 24 h; for MIC: read-out: MIC100
Aspergillus fumigatus = test: Antifungal activity against Aspergillus fumigatus MF5668 caspofungin spontaneous resistance mutant assessed as growth inhibition after 24 hrs by NCCLS broth microdilution method; format: functional; settings: MF5668, 24 h; for minimal effective concentration: read-out: MEC
Cryptococcus neoformans = test: Antifungal activity against capsular wild type Cryptococcus neoformans MY2061 assessed as growth inhibition after 24 hrs by NCCLS broth microdilution method; format: functional; settings: MY2061, 24 h, read-out: MIC100
Candida parapsilosis = test: Antifungal activity against wild type Candida parapsilosis ATCC 22019 assessed as growth inhibition after 24 hrs by NCCLS broth microdilution method; format: functional; settings: Lodderomyces parapsilosis, ATCC 22019, 24 h; for MIC: read-out: MIC100
Pichia kudriavzevii = test: Antifungal activity against wild type Candida krusei CLY549 assessed as growth inhibition after 24 hrs by NCCLS broth microdilution method; format: functional; settings: CLY549, 24 h; for MIC: read-out: MIC100
Clavispora lusitaniae = test: Antifungal activity against wild type Candida lusitaniae MY1396 assessed as growth inhibition after 24 hrs by NCCLS broth microdilution method; format: functional; settings: MY1396, 24 h; for MIC: read-out: MIC100
Nakaseomyces glabratus = test: Antifungal activity against wild type Candida glabrata MY1381 assessed as growth inhibition after 24 hrs by NCCLS broth microdilution method; format: functional; settings: MY1381, 24 h; for MIC: read-out: MIC100
Candida albicans [10] = test: Antifungal activity against wild type Candida albicans MY1055 assessed as growth inhibition after 24 hrs by NCCLS broth microdilution method in presence of human serum; format: functional; settings: MY1055, 24 h; for MIC: read-out: MIC100
Candida albicans [11] = test: Antifungal activity against wild type Candida albicans MY1055 assessed as growth inhibition after 24 hrs by NCCLS broth microdilution method; format: functional; settings: MY1055, 24 h; for MIC: read-out: MIC100
Beta-1,3-glucan synthase [12] = molecular target: T1, Beta-1,3-glucan synthase; test: Inhibition of wild type Candida albicans 1,3-beta-D-glucan synthase using UDP[6,3H]-glucose as substrate after 60 mins by liquid scintillation counting analysis

| Structure (SMILES) | MIC (Escherichia coli) [µg/mL] | MIC (Staphylococcus aureus) [µg/mL] | MIC80 (Candida albicans [6]) [µg/mL] | MIC (Candida albicans [6]) [µg/mL] | MIC80 (Candida albicans [7]) [µg/mL] | MIC (Candida albicans [7]) [µg/mL] | MIC80 (Candida albicans [8]) [µg/mL] | MIC (Candida albicans [8]) [µg/mL] | MIC80 [9] [µg/mL] | MIC [9] [µg/mL] | MIC80 (Aspergillus fumigatus) [µg/mL] | minimal effective concentration (Aspergillus fumigatus) [µg/mL] | MIC (Cryptococcus neoformans) [µg/mL] | MIC80 (Candida parapsilosis) [µg/mL] | MIC (Candida parapsilosis) [µg/mL] | MIC80 (Pichia kudriavzevii) [µg/mL] | MIC (Pichia kudriavzevii) [µg/mL] | MIC80 (Clavispora lusitaniae) [µg/mL] | MIC (Clavispora lusitaniae) [µg/mL] | MIC80 (Nakaseomyces glabratus) [µg/mL] | also measured |
| --- | --- | --- | --- | --- | --- | --- | --- | --- | --- | --- | --- | --- | --- | --- | --- | --- | --- | --- | --- | --- | --- |
| CCCCCOc1ccc(-c2cc(-c3ccc(C(=O)N[C@H]4C[C@@H](O)[C@@H](O)NC(=O)[C@@H]5[C@@H](O)CCN5C(=O)[C@H]([C@H](O)CC(N)=O)NC(=O)[C@H]([C@H](O)[C@@H](O)c5ccc(O)cc5)NC(=O)[C@@H]5C[C@@H](O)CN5C(=O)[C@H]([C@@H](C)O)NC4=O)cc3)no2)cc1 (X1-[Orn(4R-OH,5R-OH)]T[Hyp][hTyr(3S-OH,4S-OH)][Gln(3R-OH)][Pro(3S-OH)]; lactam 1-C) | > 32 | > 32 | 4 (≈ 3.45 µM) | 8 (≈ 6.9 µM) | 1 (≈ 0.862 µM) | 4 (≈ 3.45 µM) | < 0.03 | 0.06 (≈ 0.0517 µM) | 1 (≈ 0.862 µM) | 2 (≈ 1.72 µM) | < 0.03 | > 32 | > 32 | 2 (≈ 1.72 µM) | 32 (≈ 27.6 µM) | 0.25 (≈ 0.215 µM) | 2 (≈ 1.72 µM) | < 0.03 | 0.125 (≈ 0.108 µM) | 0.25 (≈ 0.215 µM) | ED90 (Candida albicans [1]): 0.24 mg/kg/day; ED99 (Candida albicans [1]): 1.31 mg/kg/day; MIC (Candida albicans [2]): 2 µg/mL (≈ 1.72 µM); IC50 [3]: 2.4 nM; IC50 [4]: 2.1 nM; IC50 (Beta-1,3-glucan synthase [5]): 2.8 nM; MIC (Nakaseomyces glabratus): 0.5 µg/mL (≈ 0.431 µM); MIC80 (Candida albicans [10]): 0.25 µg/mL; MIC (Candida albicans [10]): 1 µg/mL; MIC80 (Candida albicans [11]): < 0.03 µg/mL; MIC (Candida albicans [11]): 0.125 µg/mL (≈ 0.108 µM) |
| CCCCCOc1ccc(-c2cc(-c3ccc(C(=O)N[C@H]4C[C@@H](O)[C@@H](O)NC(=O)[C@@H]5[C@@H](O)[C@@H](C)CN5C(=O)[C@H]([C@@H](C)O)NC(=O)[C@H]([C@H](O)[C@@H](O)c5ccc(O)cc5)NC(=O)[C@@H]5C[C@@H](O)CN5C(=O)[C@H]([C@@H](C)O)NC4=O)cc3)no2)cc1 (X1-[Orn(4R-OH,5R-OH)]T[Hyp][hTyr(3S-OH,4S-OH)]T[Pro(3S-OH,4S-Me)]; lactam 1-C) | > 32 | > 32 | 4 (≈ 3.54 µM) | 16 (≈ 14.1 µM) | 1 (≈ 0.884 µM) | 8 (≈ 7.07 µM) | < 0.03 | 0.5 (≈ 0.442 µM) | 2 (≈ 1.77 µM) | 4 (≈ 3.54 µM) | < 0.03 | > 32 | > 32 | 4 (≈ 3.54 µM) | 32 (≈ 28.3 µM) | 0.5 (≈ 0.442 µM) | 1 (≈ 0.884 µM) | 0.125 (≈ 0.111 µM) | 1 (≈ 0.884 µM) | 0.25 (≈ 0.221 µM) | IC50 (Beta-1,3-glucan synthase [12]): 4.4 nM; MIC (Nakaseomyces glabratus): 1 µg/mL (≈ 0.884 µM); MIC80 (Candida albicans [10]): 0.5 µg/mL; MIC (Candida albicans [10]): 2 µg/mL; MIC80 (Candida albicans [11]): 0.06 µg/mL (≈ 0.053 µM); MIC (Candida albicans [11]): 0.5 µg/mL (≈ 0.442 µM) |

— ChEMBL document CHEMBL2385047, “Synthesis and antifungal evaluation of pentyloxyl-diphenylisoxazoloyl pneumocandins and echinocandins” (Bioorg Med Chem Lett, 2013)
